Assay results published in patent US20060019268A1, “Molecular markers of cisplatin resistance in cancer and uses thereof” (Research Development Foundation, priority 2004, published 2006).

What was measured:
HEY C2 cells = assay: Colony formation (clonogenic) assay, cisplatin sensitivity; assay type: cell-based, human
Method: (§1) Cells and culture. Six human ovarian carcinoma cell lines (2008, A2780, HEY, IGROV-1, KF28 and UCI 107) were used in this study. Sublines stably resistant to DDP (2008/C13*5.25, A2780/CP70, HEY C2, IGROV-1/CP, KFr13 and UCI CPR) had been prepared from each parental line by repeated in vitro exposure to DDP as previously described (Mishima et al., 2002). All cell lines were maintained in drug-free RPMI-1640 medium (GIBCO, Inc.) with 10% fetal calf serum (GIBCO, Inc.) at 37° C. in a humidified atmosphere containing 5% CO2. The degree of resistance of each subline was determined at the time RNA was harvested using a clonogenic assay with continuous drug exposure as previously described (Mishima et al., 2002).
(§2) Cisplatin sensitivity. Colony formation assays were used to determine the sensitivity of the 6 pairs of DDP-sensitive and resistant cell lines to the cytotoxic effect of DDP.

UCI CPR cells = assay: as above; assay type: cell-based, human
Method: as §1, §2

A2780 cells = assay: as above; assay type: cell-based, human; conditions: parental A2780 cells, continuous drug exposure
Method: as §1, §2

KFr13 cells = assay: as above; assay type: cell-based, human
Method: as §1, §2

IGROV-1/CP cells = assay: as above; assay type: cell-based, human
Method: as §1, §2

UCI 107 cells = assay: as above; assay type: cell-based, human; conditions: parental UCI 107 cells, continuous drug exposure
Method: as §1, §2

A2780/CP70 cells = assay: as above; assay type: cell-based, human
Method: as §1, §2

2008/C13*5.25 cells = assay: as above; assay type: cell-based, human
Method: as §1, §2

HEY cells = assay: as above; assay type: cell-based, human; conditions: parental HEY cells, continuous drug exposure
Method: as §1, §2

2008 cells = assay: as above; assay type: cell-based, human; conditions: parental 2008 cells, continuous drug exposure
Method: as §1, §2

KF28 cells = assay: as above; assay type: cell-based, human; conditions: parental KF28 cells, continuous drug exposure
Method: as §1, §2

IGROV-1 cells = assay: as above; assay type: cell-based, human; conditions: parental IGROV-1 cells, continuous drug exposure
Method: as §1, §2

[1] = test system: cells transfected with a metallothionein gene; conditions: cited from earlier work
[2] = test system: cells transfected with the c-myc gene; conditions: cited from earlier work

N.N.[Cl][Pt][Cl] [Cisplatin, cis-diamminedichloroplatinum]
Fold-resistant (ratio of IC50 values) (HEY C2 cells; HEY C2 vs HEY): 6.1 fold | IC50 (HEY C2 cells; resistant HEY C2 cells, colony formation, continuous drug exposure): 4600 nM | Fold-resistant (ratio of IC50 values) (UCI CPR cells; UCI CPR vs UCI 107): 8 fold | IC50 (UCI CPR cells; resistant UCI CPR cells, colony formation, continuous drug exposure): 8000 nM | IC50 (A2780 cells): 210 nM | Fold-resistant (ratio of IC50 values) (KFr13 cells; KFr13 vs KF28): 2.2 fold | IC50 (KFr13 cells; resistant KFr13 cells, colony formation, continuous drug exposure): 400 nM | Fold-resistant (ratio of IC50 values) (IGROV-1/CP cells; IGROV-1/CP vs IGROV-1): 3.6 fold | IC50 (IGROV-1/CP cells; resistant IGROV-1/CP cells, colony formation, continuous drug exposure): 1080 nM | IC50 (UCI 107 cells): 1000 nM | Fold-resistant (ratio of IC50 values) (A2780/CP70 cells; A2780/CP70 vs A2780): 11.9 fold | IC50 (A2780/CP70 cells; resistant A2780/CP70 cells, colony formation, continuous drug exposure): 2500 nM | Fold-resistant (ratio of IC50 values) (2008/C13*5.25 cells; 2008/C13*5.25 vs 2008): 1.6 fold | IC50 (2008/C13*5.25 cells; resistant 2008/C13*5.25 cells, colony formation, continuous drug exposure): 1100 nM | IC50 (HEY cells): 760 nM | IC50 (2008 cells): 700 nM | IC50 (KF28 cells): 180 nM | IC50 (IGROV-1 cells): 300 nM | level of increased resistance [1]: less than 5 fold | level of increased resistance [2]: less than 3 fold
